For test [1], the system named is tobacco T1 seeds and wild type seeds. In words: Germination of tobacco T1 seeds on Gelrite plates containing saflufenacil. The test is classed as in vivo. On the procedure: Unsprayed clones of the transgenic tobacco plants described above were grown in a greenhouse until flowering and were allowed to self pollinate. Seeds were harvested and used for further experiments. Transgene insertion copy number was not determined for these plants, but for single copy plants the seeds would be expected to segregate 1homozygous:2hemizygous:1null for the transgene.
T1 seeds from multiple transgenic events carrying the resistant and susceptible alleles, and wild type seeds, were germinated on 1.5% Gelrite (no nutrients or minerals) plates and kept in a growth chamber at 26° C. under a 16 hr light regime. Plate media contained saflufenacil at concentrations down to 0.45 parts per billion (ppb). […] All seed germinated and grew normally on Gelrite plates lacking saflufenacil.

For test [2], the system named is Tobacco (cv. Petite Havana) T0 plants. In words: Saflufenacil foliar spray of transgenic T0 tobacco plants, visual injury. The test is classed as in vivo. As to conditions: 12.5 g/ha spray; for mean visual injury score: tobacco T0 plants carrying the susceptible allele. As for the experimental part: Tobacco (cv. Petite Havana) was transformed by particle bombardment with plant expression vectors using a strong constitutive promoter to control the GM ABCT1 SUS (susceptible allele, SEQ ID NO: 125) or GM ABCT1 RES (resistant allele, SEQ ID NO: 124) genes using the following protocol: • 1) Weigh 1 mg 0.6 micron gold powder (for 8 shots). Add 1 ml 100% ethanol Sonicate 2 min. Centrifuge at 13,000 rpm×5 sec. Remove Supernatant. Repeat 3 times. • 2) Add 1 ml sterile double-deionized water. Sonicate 2 min. Centrifuge at 13,000 rpm×5 sec. Remove Supernatant. Repeat 2 times. • 3) Add 321 μl sterile water. Vortex and sonicate 2 min. • 4) Add 4 μl of DNA (1 μg/μl concentration) and vortex briefly. • 5) Add 100 μl of 5M CaCl2 and 80 μl of 0.1M Spermidine (14 μl of Spermidine+985.6 μl water prepared freshly). Mix with finger and vortex 2 sec. • 6) Incubate on ice for 1 min. Spin down at 13,000 rpm for 2 sec and remove supernatant. • 7) Add 500 μl of 100% ethanol. Pipette up and down a few times to wash. (It is important to break all big aggregates at this stage). Vortex 2 sec. Spin down at 13,000 rpm for 2 sec and remove supernatant. • 8) Re-suspend in 85 μl of 100% ethanol. Keep on ice. Vortex solution before spreading 10 μl of DNA prep on flying disk. (Sterilize in 100% ethanol for 5-10 min and air dry, also sterilize and air dry 1100 psi rupture disk). • 9) Place tobacco leaf (cv. Petit Havana) abaxial side up in the center of a petri plate containing MS01 medium (MS+B5 vitamins (Phytotechnology M519), Sucrose 30 g/l, agar 8 g/l, BA 2 mg/L, NAA 0.05 mg/L). • 10) Bombard with 28 mm Hg vacuum, position plate at 9 cm (2nd position from bottom), 1100 psi rupture disk. After bombardment, invert leaves so bombarded side and petioles are in contact with medium. • 11) Maintain leaves under 16 hrs/day dim light (<5 μEinstein) for 2-3 days. • 12) Cut leaves into small pieces (0.5 cm×0.5 cm) in MSB-Co (MS+Vit, Glucose 10 g/L, BA 50 mg/L, pH5.2), then blot dry on sterile filter paper and place with bombarded side in contact with the MS01 medium containing hygromycin 25 mg/L under 16 hrs/day light (80-120 μEinstein). When shoots appear, cut and place directly in selection media. • 13) Until shoots appear, change selection medium every 2 weeks. • 14) When entire plantlets are formed (1-2 cm high), leaves are cut into approx. 1-2 mm segments and re-cultured on MS01 medium containing hygromycin 25 mg/L and 8 g/L agar. Subculture to fresh medium every 3 weeks. When new shoots appear, isolate single shoots and transfer onto ½ MS media (M519 2.22 g/L, sucrose 15 g/L, agar 6 g/L).
Stable transgenic events were tested for presence of the transgene by PCR, and transcription of the genes was confirmed by qRT-PCR. Three clonal plants were produced from each transgenic event; two plants from each event were used for the spray experiment.
Plants were grown until 3 to 5 expanded true leaves were present and then sprayed with saflufenacil at a rate of 12.5 g/ha. All treatments were applied in a spray volume of 140 L/ha. Ammonium sulfate was included at 1% w/v. Treated plants were compared to untreated plants of similar genetic background and evaluated for herbicide injury at seven and seventeen days after treatment. Visual injury was on a scale of 0 to 100% injury (0=no effect to 100=dead plant).

Test [3] has as its system Soybean (cv. Jack) T0 plants. In words: Saflufenacil foliar spray of transgenic T0 soybean plants, visual injury. The test is classed as in vivo, Glycine max. As to conditions: 3 g/ha foliar spray, 7 days after treatment, 0=no effect, 100=dead plant. As for the experimental part:
Soybean was transformed essentially as described in Li et al. (2007) Plant Mol Biol 65:329-341. Soybean (cv. Jack) embryogenic cultures were transformed by particle bombardment with plant expression vectors using a strong constitutive promoter to control the GM ABCT1 SUS (susceptible allele, SEQ ID NO:125) or GM ABCT1 TOL (resistant allele, SEQ ID NO: 124) genes. Stable transgenic events were tested for presence of the transgene by PCR, but no confirmation of expression was performed. Three clonal plants were produced from each transgenic event.
These T0 plants were grown to the V2 to V8 growth stage and then sprayed with saflufenacil at a rate of 3 g/ha. All treatments were applied in a spray volume of 280 L/ha. The spray mixture contained acetone, water, glycerin and surfactant. Treated plants were compared to untreated plants of similar genetic background and evaluated for herbicide injury at seven days after treatment. Visual injury was on a scale of 0 to 100% injury (0=no effect to 100=dead plant). Plants are also visually evaluated for agronomic effects such as interveinal and veinal chlorosis, reddening, leaf malformation, necrosis, apical withering/death/regrowth, and whole plant height.

Test [4] has as its system tobacco T1 seedlings and wild type. In words: Saflufenacil soil drench of tobacco T1 seedlings in pots. As to conditions: three days after treatment. The test is classed as in vivo. The text has this:
T1 seeds were sown in four inch pots containing soil and allowed to germinate for five days. At this point, with cotyledons visible above the soil, pots were drenched with 100 mls saflufenacil in water at 0.45 ppb. The solution was applied to soil, avoiding direct contact with plant cotyledons.

`CC(C)N(C)S(=O)(=O)NC(=O)c1cc(-n2c(=O)cc(C(F)(F)F)n(C)c2=O)c(F)cc1Cl` [saflufenacil]: the “difference between transgenic seed with either GM ABCT1 allele and wild type seed” value in test [1] (Gelrite plates containing saflufenacil down to 0.45 ppb) is on record as “No visible difference”. Also, the “seed germination and growth” value in test [1] (plate media at 0.91 ppb and 0.45 ppb, transgenic T1 and wild type tobacco seed) is “seeds germinated but were bleached and failed to grow”. The seed germination entry in test [1] (plate media at concentrations above 0.91 ppb, transgenic T1 and wild type tobacco seed) is listed as “no germination was observed”. Besides, the mean visual injury in test [2] (tobacco T0 plants carrying the resistant allele, seven days after treatment) is on record as 63%; in test [2] (tobacco T0 plants carrying the resistant allele, seventeen days after treatment) it was 46%; in test [2] (transgenic control tobacco plants carrying an unrelated transgene, seven days after treatment) it was 63%; in test [2] (transgenic control tobacco plants carrying an unrelated transgene, seventeen days after treatment), 53%; in test [3] (soybean cv. Jack T0 plants carrying the resistant allele (GM ABCT1 TOL)) it was 72%; in test [3] (wild type soy plants), 84%. The “mean visual injury score” value stood at 77% in test [2] (seven days after treatment), 61% in test [2] (seventeen days after treatment) and 59% in test [3] (soybean cv. Jack T0 plants carrying the susceptible allele (GM ABCT1 SUS)). Moreover, the seedling condition result in test [4] (100 mls at 0.45 ppb drenched to soil five days after sowing) is “all seedlings were severely bleached and appeared dead”. For the same compound, the “differences between transgenic lines and wild type” value in test [4] (100 mls at 0.45 ppb soil drench) is “No visible differences”.

(Values after US9611485B2, “Polynucleotide and polypeptide sequences associated with herbicide tolerance” (priority 2010, dated 2017).)
